{"source": "ChEMBL document CHEMBL3044741", "about": "“Synthesis of novel biologically active methylene derivatives of sydnones” (Med Chem Res, 2013)", "key": {"[1]": {"test_system": "Streptococcus pyogenes", "test": "Antibacterial activity against Streptococcus pyogenes MTCC 442 at 250 ug/ml after 24 hrs by Kirby-Bauer method", "type": "functional", "settings": "MTCC 442, 24 h, read-out: IZ"}, "[2]": {"test_system": "Aspergillus niger", "test": "Antifungal activity against Aspergillus niger MTCC 282 at 250 ug/ml after 74 hrs by Kirby-Bauer method", "type": "functional", "settings": "MTCC 282, 74 h, read-out: IZ"}, "[3]": {"test_system": "Escherichia coli", "test": "Antibacterial activity against Escherichia coli MTCC 443 at 250 ug/ml after 24 hrs by Kirby-Bauer method", "type": "functional", "settings": "MTCC 443, 24 h, read-out: IZ"}, "[4]": {"test_system": "Candida albicans", "test": "Antifungal activity against Candida albicans MTCC 227 at 250 ug/ml after 74 hrs by Kirby-Bauer method", "type": "functional", "settings": "MTCC 227, 74 h, read-out: IZ"}, "[5]": {"test_system": "Human alphaherpesvirus 3", "test": "Antiviral activity against Varicella-zoster virus Oka expressing thymidine kinase infected in HEL cells assessed as reduction in plaque formation", "type": "functional, organism-based", "settings": "Human alphaherpesvirus 3, strain Oka vaccine"}, "[6]": {"test": "Cytotoxicity against human MT4 cells by MTT assay", "type": "cell-based"}, "[7]": {"test_system": "Aspergillus clavatus", "test": "Antifungal activity against Aspergillus clavatus MTCC 1323", "type": "functional"}, "[8]": {"test": "Cytotoxicity against human HEL cells assessed as alteration in cell morphology", "type": "cell-based"}, "[9]": {"test_system": "Staphylococcus aureus", "test": "Antibacterial activity against Staphylococcus aureus MTCC 96 after 24 hrs by broth dilution method", "type": "functional", "settings": "MTCC 96, 24 h"}, "[10]": {"test_system": "Streptococcus pyogenes", "test": "Antibacterial activity against Streptococcus pyogenes MTCC 442 after 24 hrs by broth dilution method", "type": "functional", "settings": "MTCC 442, 24 h"}, "[11]": {"test_system": "Human alphaherpesvirus 3", "test": "Antiviral activity against thymidine kinase-deficient Varicella-zoster virus infected in HEL cells assessed as reduction in plaque formation", "type": "functional, organism-based", "settings": "Human alphaherpesvirus 3, HEL"}, "[12]": {"test_system": "Cytomegalovirus", "test": "Antiviral activity against Cytomegalovirus Davis in HEL cells assessed as reduction in plaque formation", "type": "functional, organism-based", "settings": "Human betaherpesvirus 5, Davis"}, "[13]": {"test_system": "Aspergillus niger", "test": "Antifungal activity against Aspergillus niger MTCC 282", "type": "functional"}, "[14]": {"test_system": "Pseudomonas aeruginosa", "test": "Antibacterial activity against Pseudomonas aeruginosa MTCC 424 at 250 ug/ml after 24 hrs by Kirby-Bauer method", "type": "functional", "settings": "MTCC 424, 24 h, read-out: IZ"}, "[15]": {"test_system": "Candida albicans", "test": "Antifungal activity against Candida albicans MTCC 227", "type": "functional"}, "[16]": {"test_system": "Cytomegalovirus", "test": "Antiviral activity against Cytomegalovirus AD-169 infected in HEL cells assessed as reduction in plaque formation", "type": "functional, organism-based", "settings": "Human betaherpesvirus 5, AD-169, HEL"}, "[17]": {"test": "Selectivity index, ratio of CC50 for human MT4 cells to IC50 for HIV1 3B", "type": "functional"}, "[18]": {"test_system": "Human immunodeficiency virus 1", "test": "Antiviral activity against HIV1 3B infected in MT4 cells assessed as inhibition of virus-induced cytopathogenicity by MTT assay", "type": "functional, organism-based", "settings": "Human immunodeficiency virus 1, 3B"}, "[19]": {"test_system": "Escherichia coli", "test": "Antibacterial activity against Escherichia coli MTCC 443 after 24 hrs by broth dilution method", "type": "functional", "settings": "MTCC 443, 24 h"}, "[20]": {"test_system": "Pseudomonas aeruginosa", "test": "Antibacterial activity against Pseudomonas aeruginosa MTCC 424 after 24 hrs by broth dilution method", "type": "functional", "settings": "MTCC 424, 24 h"}, "[21]": {"test": "Cytotoxicity against human HEL cells", "type": "cell-based"}, "[22]": {"test": "Selectivity index, ratio of CC50 for human MT4 cells to IC50 for HIV2 ROD", "type": "functional"}, "[23]": {"test_system": "Aspergillus clavatus", "test": "Antifungal activity against Aspergillus clavatus MTCC 1323 at 250 ug/ml after 74 hrs by Kirby-Bauer method", "type": "functional", "settings": "MTCC 1323, 74 h, read-out: IZ"}, "[24]": {"test_system": "Human immunodeficiency virus 2", "test": "Antiviral activity against HIV2 ROD infected in MT4 cells assessed as inhibition of virus-induced cytopathogenicity by MTT assay", "type": "functional, organism-based", "settings": "Human immunodeficiency virus 2, ISOLATE ROD"}, "[25]": {"test_system": "Staphylococcus aureus", "test": "Antibacterial activity against Staphylococcus aureus MTCC 96 at 250 ug/ml after 24 hrs by Kirby-Bauer method", "type": "functional", "settings": "MTCC 96, 24 h, read-out: IZ"}}}
{"smiles": "[O-]c1on[n+](-c2ccc(Cc3ccc(-[n+]4noc([O-])c4CN4CCN(C5=Nc6ccccc6Sc6ccccc65)CC4)cc3)cc2)c1CN1CCN(C2=Nc3ccccc3Sc3ccccc32)CC1", "values": [{"measurement": "zone of inhibition at 250 µg/mL", "setting": "[1]", "value": 18, "unit": "mm"}, {"measurement": "zone of inhibition at 250 µg/mL", "setting": "[2]", "value": 18, "unit": "mm"}, {"measurement": "zone of inhibition at 250 µg/mL", "setting": "[3]", "value": 19, "unit": "mm"}, {"measurement": "zone of inhibition at 250 µg/mL", "setting": "[4]", "value": 25, "unit": "mm"}, {"measurement": "EC50", "setting": "[5]", "value": "> 4", "unit": "µg/mL"}, {"measurement": "CC50", "setting": "[6]", "value": 11.6, "unit": "µg/mL"}, {"measurement": "MIC", "setting": "[7]", "value": 500, "unit": "µg/mL"}, {"measurement": "MCC", "setting": "[8]", "value": 100, "unit": "µg/mL"}, {"measurement": "MIC", "setting": "[9]", "value": 62.5, "unit": "µg/mL"}, {"measurement": "MIC", "setting": "[10]", "value": 250, "unit": "µg/mL"}, {"measurement": "EC50", "setting": "[11]", "value": "> 4", "unit": "µg/mL"}, {"measurement": "EC50", "setting": "[12]", "value": "> 20", "unit": "µg/mL"}, {"measurement": "MIC", "setting": "[13]", "value": 1000, "unit": "µg/mL"}, {"measurement": "zone of inhibition at 250 µg/mL", "setting": "[14]", "value": 21, "unit": "mm"}, {"measurement": "MIC", "setting": "[15]", "value": 500, "unit": "µg/mL"}, {"measurement": "EC50", "setting": "[16]", "value": "> 20", "unit": "µg/mL"}, {"measurement": "Ratio CC50/IC50", "setting": "[17]", "value": "<1"}, {"measurement": "IC50", "setting": "[18]", "value": "> 11.6", "unit": "µg/mL"}, {"measurement": "MIC", "setting": "[19]", "value": 250, "unit": "µg/mL"}, {"measurement": "MIC", "setting": "[20]", "value": 125, "unit": "µg/mL"}, {"measurement": "CC50", "setting": "[21]", "value": 13.8, "unit": "µg/mL"}, {"measurement": "Ratio CC50/IC50", "setting": "[22]", "value": "<1"}, {"measurement": "zone of inhibition at 250 µg/mL", "setting": "[23]", "value": 23, "unit": "mm"}, {"measurement": "IC50", "setting": "[24]", "value": "> 11.6", "unit": "µg/mL"}, {"measurement": "zone of inhibition at 250 µg/mL", "setting": "[25]", "value": 23, "unit": "mm"}]}
